≈ marks a conversion by molar mass, not a printed value.
Key:
Staphylococcus aureus [1] = experiment: Synergistic antimicrobial activity against Staphylococcus aureus 1199B overexpressing NorA efflux pump assessed as reduction in norfloxacin MIC incubated for 24 hrs by MTT colorimetric assay (Rvb= […]); type: functional
Staphylococcus aureus [2] = experiment: Synergistic antimicrobial activity against Staphylococcus aureus 1199B overexpressing NorA efflux pump assessed as fractional inhibitory concentration index incubated for 24 hrs by checkerboard method; type: functional
Staphylococcus aureus [3] = experiment: Antibacterial activity against Staphylococcus aureus 1199 assessed as bacterial growth inhibition incubated for 24 hrs by broth microdilution method; type: functional
Staphylococcus aureus [4] = experiment: Antibacterial activity against Staphylococcus aureus 1199B overexpressing NorA efflux gene assessed as bacterial growth inhibition incubated for 24 hrs by broth microdilution method; type: functional
Staphylococcus aureus [5] = experiment: Antibacterial activity against NorA knockout Staphylococcus aureus K1758 assessed as bacterial growth inhibition incubated for 24 hrs by broth microdilution method; type: functional
Staphylococcus aureus [6] = experiment: Antibacterial activity against Staphylococcus aureus 1199B overexpressing NorA assessed as bacterial growth inhibition incubated for 18 hrs by MTT assay; type: functional
Staphylococcus aureus [7] = experiment: Antibacterial activity against tetracycline-resistant Staphylococcus aureus XU212 assessed as bacterial growth inhibition incubated for 18 hrs by MTT assay; type: functional
Staphylococcus aureus [8] = experiment: Antibacterial activity against Staphylococcus aureus ATCC25923 assessed as bacterial growth inhibition incubated for 18 hrs by MTT assay; type: functional
Staphylococcus aureus [9] = experiment: Antibacterial activity against Staphylococcus aureus RN4220 assessed as bacterial growth inhibition incubated for 18 hrs by MTT assay; type: functional
Staphylococcus aureus [10] = experiment: Antibacterial activity against Staphylococcus aureus EMRSA-15 assessed as bacterial growth inhibition incubated for 18 hrs by MTT assay; type: functional
Staphylococcus aureus [11] = experiment: Antibacterial activity against wild type Staphylococcus aureus ATCC 25923 assessed as bacterial growth inhibition incubated for 24 hrs by resazurin based microdilution assay; type: functional
Staphylococcus aureus [12] = experiment: Antibacterial activity against Staphylococcus aureus IS-58 overexpressing TetK efflux protein assessed as bacterial growth inhibition incubated for 24 hrs by resazurin based microdilution assay; type: functional
Staphylococcus aureus [13] = experiment: Antibacterial activity against Staphylococcus aureus RN4220 overexpressing […] efflux protein assessed as bacterial growth inhibition incubated for 24 hrs by resazurin based microdilution assay; type: functional
Staphylococcus aureus [14] = experiment: Antibacterial activity against Staphylococcus aureus 1199B overexpressing NorA efflux protein assessed as bacterial growth inhibition incubated for 24 hrs by resazurin based microdilution assay; type: functional
Staphylococcus aureus [15] = experiment: Antibacterial activity against Staphylococcus aureus K2068 overexpressing mepA gene assessed as bacterial growth inhibition incubated for 24 hrs by resazurin based microdilution assay; type: functional
Staphylococcus aureus [16] = experiment: Antibacterial activity against Staphylococcus aureus K4414 overexpressing qacA/B gene assessed as bacterial growth inhibition incubated for 24 hrs by resazurin based microdilution assay; type: functional
Staphylococcus aureus [17] = experiment: Antibacterial activity against Staphylococcus aureus K4100 overexpressing qacC gene assessed as bacterial growth inhibition incubated for 24 hrs by resazurin based microdilution assay; type: functional
Staphylococcus aureus [18] = experiment: Antibacterial activity against norfloxacin resistant Staphylococcus aureus 1199 assessed as bacterial growth inhibition incubated for 24 hrs by resazurin based broth microdilution method; type: functional
Staphylococcus aureus [19] = experiment: Antibacterial activity against norfloxacin resistant Staphylococcus aureus 1199B overexpressing NorA assessed as bacterial growth inhibition incubated for 24 hrs by resazurin based broth microdilution method; type: functional
[20] = target: T1, Quinolone resistance protein NorA (Staphylococcus aureus) (UniProt P0A0J7); experiment: Potentiation of norfloxacin-induced inhibition of NorA efflux pump in Staphylococcus aureus 1199A assessed as reduction in norfloxacin MIC at 1/8 times of MIC incubated for 24 hrs by resazurin based broth microdilution method (Rvb= […] ug/ml)
T1 sequence (whole entry): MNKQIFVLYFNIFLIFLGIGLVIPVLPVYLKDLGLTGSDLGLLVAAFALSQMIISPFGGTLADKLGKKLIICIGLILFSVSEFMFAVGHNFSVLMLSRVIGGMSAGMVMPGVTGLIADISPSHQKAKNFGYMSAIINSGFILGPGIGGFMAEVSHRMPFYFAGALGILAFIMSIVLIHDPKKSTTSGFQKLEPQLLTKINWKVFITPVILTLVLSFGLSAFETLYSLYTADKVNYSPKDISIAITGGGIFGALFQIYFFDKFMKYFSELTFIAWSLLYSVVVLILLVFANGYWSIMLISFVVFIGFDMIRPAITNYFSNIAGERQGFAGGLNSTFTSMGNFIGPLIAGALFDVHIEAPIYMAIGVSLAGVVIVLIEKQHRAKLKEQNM

[21] = target: T1, Quinolone resistance protein NorA (Staphylococcus aureus); experiment: Potentiation of norfloxacin-induced inhibition of NorA efflux pump in Staphylococcus aureus 1199B overexpressing NorA efflux pump assessed as reduction in norfloxacin MIC at 1/8 times of MIC incubated for 24 hrs by resazurin based broth microdilution method (Rvb= 128 ug/ml)
[22] = target: T1, Quinolone resistance protein NorA (Staphylococcus aureus); experiment: Potentiation of EtBr-induced inhibition of NorA efflux pump in Staphylococcus aureus 1199A assessed as reduction in EtBr MIC at 1/8 times of MIC incubated for 24 hrs by resazurin based broth microdilution method (Rvb=32 ug/ml)
[23] = target: T1, Quinolone resistance protein NorA (Staphylococcus aureus); experiment: Potentiation of EtBr-induced inhibition of NorA efflux pump in Staphylococcus aureus 1199B overexpressing NorA efflux pump assessed as reduction in EtBr MIC at 1/8 times of MIC incubated for 24 hrs by resazurin based broth microdilution method (Rvb= 32 ug/ml)
Staphylococcus aureus [24] = experiment: Antibacterial activity against norfloxacin resistant Staphylococcus aureus 1199B overexpressing NorA assessed as bacterial growth inhibition incubated for 24 hrs by resazurin based microdilution assay; type: functional
Staphylococcus aureus [25] = experiment: Antibacterial activity against methicillin-resistant Staphylococcus aureus 1199B overexpressing NorA gene assessed as bacterial growth inhibition; type: functional
Staphylococcus aureus [26] = experiment: Antibacterial activity against Staphylococcus aureus 1199B expressing NorA efflux protein assessed as bacterial growth inhibition incubated for 24 hrs by resazurin based microdilution assay; type: functional
Staphylococcus aureus [27] = experiment: Antibacterial activity against wild type Staphylococcus aureus 1199 assessed as bacterial growth inhibition incubated for 24 hrs by resazurin based microdilution assay; type: functional
[28] = target: T1, Quinolone resistance protein NorA (Staphylococcus aureus); experiment: Inhibition of NorA efflux pump in Staphylococcus aureus 1199B overexpressing NorA efflux pump assessed as norfloxacin MIC at 1/8 times of MIC using norfloxacin as substrate incubated for 24 hrs by resazurin based assay (Rvb= 406.37 ug/ml)
[29] = target: T1, Quinolone resistance protein NorA (Staphylococcus aureus); experiment: Inhibition of NorA efflux pump in Staphylococcus aureus 1199 assessed as norfloxacin MIC at 1/8 times of MIC using norfloxacin as substrate incubated for 24 hrs by resazurin based assay (Rvb= 32 ug/ml)
[30] = target: T1, Quinolone resistance protein NorA (Staphylococcus aureus); experiment: Inhibition of NorA efflux pump in Staphylococcus aureus 1199B overexpressing NorA efflux pump assessed as EtBr MIC at 1/8 times of MIC using EtBr as substrate incubated for 24 hrs by resazurin based assay (Rvb= 256 ug/ml)
[31] = target: T1, Quinolone resistance protein NorA (Staphylococcus aureus); experiment: Inhibition of NorA efflux pump in Staphylococcus aureus 1199 assessed as EtBr MIC at 1/8 times of MIC using EtBr as substrate incubated for 24 hrs by resazurin based assay (Rvb= 256 ug/ml)
Staphylococcus aureus [32] = experiment: Antibacterial activity against norfloxacin resistant Staphylococcus aureus IS-58 overexpressing TetK efflux pump gene assessed as bacterial growth inhibition incubated for 18 to 24 hrs by NCCLS protocol based microdilution method; type: functional; conditions: time 18-24 hrs
Staphylococcus aureus [33] = experiment: Antibacterial activity against norfloxacin resistant Staphylococcus aureus RN4220 overexpressing MsrA efflux pump gene assessed as bacterial growth inhibition incubated for 18 to 24 hrs by NCCLS protocol based microdilution method; type: functional; conditions: time 18-24 hrs
Staphylococcus aureus [34] = experiment: Antibacterial activity against norfloxacin resistant Staphylococcus aureus 1199B overexpressing NorA efflux pump gene assessed as bacterial growth inhibition incubated for 18 to 24 hrs by NCCLS protocol based microdilution method; type: functional; conditions: time 18-24 hrs

O=C(OC[C@]1(O)[C@H](OC(=O)c2ccccc2)C=C[C@@H](OC(=O)c2ccccc2)[C@@H]1O)c1ccccc1
MIC (Staphylococcus aureus [1]): 32 µg/mL
fractional inhibitory concentration index (FICI) (Staphylococcus aureus [2]): 0.52

O=C1C[C@@H](c2ccccc2)Oc2cc(O)cc(O)c21 [PINOCEMBRIN]
MIC (Staphylococcus aureus [3]): 250 µg/mL (≈ 976 µM)
MIC (Staphylococcus aureus [4]): 500 µg/mL (≈ 1950 µM)
MIC (Staphylococcus aureus [5]): 250 µg/mL (≈ 976 µM)

CC1(C)C=Cc2c(cc3occ(-c4ccc(O)cc4)c(=O)c3c2O)O1 [ALPINUMISOFLAVONE]
MIC (Staphylococcus aureus [6]): 32 µg/mL (≈ 95.1 µM)
MIC (Staphylococcus aureus [7]): 32 µg/mL (≈ 95.1 µM)
MIC (Staphylococcus aureus [8]): 32 µg/mL (≈ 95.1 µM)
MIC (Staphylococcus aureus [9]): 32 µg/mL (≈ 95.1 µM)
MIC (Staphylococcus aureus [10]): 32 µg/mL (≈ 95.1 µM)

COc1ccc(/C=C/C(=O)c2ccccc2)cc1OC
MIC (Staphylococcus aureus [11]): 100 µg/mL (≈ 373 µM)
MIC (Staphylococcus aureus [12]): 100 µg/mL (≈ 373 µM)
MIC (Staphylococcus aureus [13]): 100 µg/mL (≈ 373 µM)
MIC (Staphylococcus aureus [14]): 100 µg/mL (≈ 373 µM)
MIC (Staphylococcus aureus [15]): 100 µg/mL (≈ 373 µM)
MIC (Staphylococcus aureus [16]): 100 µg/mL (≈ 373 µM)
MIC (Staphylococcus aureus [17]): 100 µg/mL (≈ 373 µM)

C=CCc1ccccc1 [ALLYLBENZENE]
MIC (Staphylococcus aureus [18]): > 1020 µg/mL
MIC (Staphylococcus aureus [19]): > 1020 µg/mL

COC(=O)c1cc(/C=C/C(=O)c2cccc(O)c2)ccc1OC
MIC (Staphylococcus aureus [11]): 100 µg/mL (≈ 320 µM)
MIC (Staphylococcus aureus [12]): 100 µg/mL (≈ 320 µM)
MIC (Staphylococcus aureus [13]): 100 µg/mL (≈ 320 µM)
MIC (Staphylococcus aureus [14]): 100 µg/mL (≈ 320 µM)
MIC (Staphylococcus aureus [15]): 100 µg/mL (≈ 320 µM)
MIC (Staphylococcus aureus [16]): 100 µg/mL (≈ 320 µM)
MIC (Staphylococcus aureus [17]): 100 µg/mL (≈ 320 µM)

Cc1ccc(C(C)C)c(O)c1 [THYMOL]
MIC (Staphylococcus aureus [18]): 256 µg/mL (≈ 1700 µM)
MIC (Staphylococcus aureus [19]): 256 µg/mL (≈ 1700 µM)
MIC [20]: 32 µg/mL
MIC [21]: 64 µg/mL
MIC [22]: 25.4 µg/mL
MIC [23]: 16 µg/mL

CCn1cc(C(=O)O)c(=O)c2cc(F)c(N3CCNCC3)cc21 [NORFLOXACIN]
MIC (Staphylococcus aureus [24]): 64 µg/mL (≈ 200 µM)
MIC (Staphylococcus aureus [25]): 32 µg/mL (≈ 100 µM)

CC(C)=CCC1=C(NCCO)C(=O)c2ccccc2C1=O
MIC (Staphylococcus aureus [26]): ≥ 1020 µg/mL
MIC (Staphylococcus aureus [27]): ≥ 1020 µg/mL
MIC [28]: 80 µg/mL
MIC [29]: 1 µg/mL
MIC [30]: 32 µg/mL
MIC [31]: 16 µg/mL

O=c1c(O)c(-c2ccccc2)oc2cc(O)cc(O)c12 [GALANGIN]
MIC (Staphylococcus aureus [3]): 125 µg/mL (≈ 463 µM)
MIC (Staphylococcus aureus [4]): 250 µg/mL (≈ 925 µM)
MIC (Staphylococcus aureus [5]): 125 µg/mL (≈ 463 µM)

C=CCc1cc(OC)c(O)c(OC)c1 [METHOXYEUGENOL]
MIC (Staphylococcus aureus [18]): 32 µg/mL (≈ 165 µM)
MIC (Staphylococcus aureus [19]): 128 µg/mL (≈ 659 µM)

COc1cc(O)c2c(=O)c(OC)c(-c3ccc(O)c(OC)c3)oc2c1 [PACHYPODOL]
MIC (Staphylococcus aureus [25]): 256 µg/mL (≈ 743 µM)

CC(C)=CCC1=C(NCCCO)C(=O)c2ccccc2C1=O
MIC (Staphylococcus aureus [26]): ≥ 1020 µg/mL
MIC (Staphylococcus aureus [27]): ≥ 1020 µg/mL
MIC [28]: 102 µg/mL
MIC [29]: 4 µg/mL
MIC [30]: 64 µg/mL
MIC [31]: 32 µg/mL

C/C=C/c1cc(OC)c2c(c1)[C@H](C)[C@@H](c1ccc(OC)c(OC)c1)O2
MIC (Staphylococcus aureus [1]): 8 µg/mL
fractional inhibitory concentration index (FICI) (Staphylococcus aureus [2]): 0.13

COc1ccc(-c2cc(=O)c3ccc(O)cc3o2)cc1O
MIC (Staphylococcus aureus [6]): 32 µg/mL (≈ 113 µM)
MIC (Staphylococcus aureus [7]): 32 µg/mL (≈ 113 µM)
MIC (Staphylococcus aureus [8]): 32 µg/mL (≈ 113 µM)
MIC (Staphylococcus aureus [9]): 32 µg/mL (≈ 113 µM)
MIC (Staphylococcus aureus [10]): 32 µg/mL (≈ 113 µM)

CC(C)=CCOc1c2occc2cc2ccc(=O)oc12 [PENTOSALEN]
MIC (Staphylococcus aureus [32]): > 256 µg/mL
MIC (Staphylococcus aureus [33]): > 256 µg/mL
MIC (Staphylococcus aureus [34]): > 256 µg/mL

C/C=C/c1ccc(O)c(OC)c1
MIC (Staphylococcus aureus [18]): 40.3 µg/mL (≈ 245 µM)
MIC (Staphylococcus aureus [19]): 32 µg/mL (≈ 195 µM)
